Key:
[1] = Dissolution in ethanol (check for ferric hydroxide in ferric trimaltol); conditions: for dissolution of ferric trimaltol powder in ethanol: powders produced as per Examples 1 and 2 dissolved in ethanol, complete dissolution confirms absence of iron hydroxides
Description: As such ferric trimaltol powders produced as per Examples 1 and 2 were dissolved in ethanol.

[2] = test system: IBD patients; conditions: in vivo; cited from earlier work
[3] = in vivo; cited from earlier work

Row | SMILES | dissolution of ferric trimaltol powder in ethanol [1] | tolerability [2] | solubility in ethanol [1] | absorption [3]
1 | Cc1occc(=O)c1[O-].Cc1occc(=O)c1[O-].Cc1occc(=O)c1[O-].[Fe+3] [Example 1] | did not |  |  | 
2 | Cc1occc(=O)c1[O-].Cc1occc(=O)c1[O-].Cc1occc(=O)c1[O-].[Fe+3] [Example 2] | dissolved completely |  |  | 
3 | Cc1occc(=O)c1[O-].Cc1occc(=O)c1[O-].Cc1occc(=O)c1[O-].[Fe+3] [Ferric trimaltol, ferric trimaltol] |  | well tolerated | soluble in ethanol | well absorbed

From US11267836B2, “Methods for producing ferric maltol compositions from ligand modified and ligand coated ferric hydroxides” (Shield TX (UK) Limited, priority 2016, dated 2022)
